Measurements published in patent US10323022B2, “Pyrrolidinyl urea, pyrrolidinyl thiourea and pyrrolidinyl guanidine compounds as TrkA kinase inhibitors” (Array BioPharma Inc., priority 2011, dated 2019).

What follows are compounds tested against TrkA (Homo sapiens (Human), UniProt P04629) (assay: TrkA Omnia Assay). Settings: averaged IC50; 20 nM enzyme, 500 μM ATP, 10 μM peptide substrate.
Assay type: biochemical
How it was run: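 Continuous fluorescent kinase read-out (ex 360 nm, em 485 nm) over 70 min, with initial rates fitted to 4- or 5-parameter logistic curves for IC50. Final conditions: 500 μM ATP, 10 μM Omnia Tyr Peptide #4, 20 nM TrkA, MOPS pH 7.5 buffer with MgCl2 and Triton X-100; enzyme and compound preincubated 10 min at ambient temperature.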

TrkA, sequence (P04629 33-796): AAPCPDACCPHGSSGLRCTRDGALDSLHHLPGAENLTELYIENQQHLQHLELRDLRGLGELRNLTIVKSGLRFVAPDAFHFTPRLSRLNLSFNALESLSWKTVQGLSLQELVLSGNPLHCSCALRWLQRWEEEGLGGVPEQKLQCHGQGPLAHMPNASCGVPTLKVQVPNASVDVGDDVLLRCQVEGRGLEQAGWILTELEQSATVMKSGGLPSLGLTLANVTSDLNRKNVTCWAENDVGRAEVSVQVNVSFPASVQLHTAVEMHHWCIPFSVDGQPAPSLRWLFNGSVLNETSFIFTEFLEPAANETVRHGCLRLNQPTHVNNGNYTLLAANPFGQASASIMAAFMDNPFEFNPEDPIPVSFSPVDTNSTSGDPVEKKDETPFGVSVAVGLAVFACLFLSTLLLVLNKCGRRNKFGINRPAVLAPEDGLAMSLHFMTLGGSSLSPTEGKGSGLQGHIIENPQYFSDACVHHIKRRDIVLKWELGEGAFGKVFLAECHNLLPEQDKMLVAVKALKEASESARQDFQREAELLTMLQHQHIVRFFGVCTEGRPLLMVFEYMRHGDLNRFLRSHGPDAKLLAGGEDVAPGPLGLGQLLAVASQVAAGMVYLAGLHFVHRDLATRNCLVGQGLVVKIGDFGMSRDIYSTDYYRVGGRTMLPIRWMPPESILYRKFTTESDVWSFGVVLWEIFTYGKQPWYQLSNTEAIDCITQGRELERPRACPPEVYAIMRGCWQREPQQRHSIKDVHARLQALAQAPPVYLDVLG

IC50 | Structure (SMILES)
< 100 nM | COCCN1C[C@@H](NC(=O)Nc2c(Br)c(COC)nn2-c2ccccc2)[C@H](c2cc(F)cc(F)c2)C1 [Example 406, 1-(4-bromo-3-(methoxymethyl)-1-phenyl-1H-pyrazol-5-yl)-3-((3S,4R)-4-(3,5-difluorophenyl)-1-(2-methoxyethyl)pyrrolidin-3-yl)urea]
< 100 nM | COCCN1C[C@@H](NC(=O)Nc2c(Cl)c(COC)nn2-c2ccccc2)[C@H](c2ccc(F)cc2)C1 [Example 407, 1-(4-chloro-3-(methoxymethyl)-1-phenyl-1H-pyrazol-5-yl)-3-((3S,4R)-4-(4-fluorophenyl)-1-(2-methoxyethyl)pyrrolidin-3-yl)urea]
< 100 nM | COCCN1C[C@@H](NC(=O)Nc2c(Br)c(COC)nn2-c2ccccc2)[C@H](c2ccc(F)cc2)C1 [Example 408, 1-(4-bromo-3-(methoxymethyl)-1-phenyl-1H-pyrazol-5-yl)-3-((3S,4R)-4-(4-fluorophenyl)-1-(2-methoxyethyl)pyrrolidin-3-yl)urea]
< 100 nM | COCCN1C[C@@H](NC(=O)Nc2c(Cl)c(C(F)(F)CO)nn2-c2ccccc2)[C@H](c2ccc(F)c(F)c2)C1 [Example 409, 1-(4-chloro-3-(1,1-difluoro-2-hydroxyethyl)-1-phenyl-1H-pyrazol-5-yl)-3-((3S,4R)-4-(3,4-difluorophenyl)-1-(2-methoxyethyl)pyrrolidin-3-yl)urea]
< 100 nM | COCCN1C[C@@H](NC(=O)Nc2c(Cl)c(C(F)(F)CO)nn2-c2ccccc2)[C@H](c2cc(F)cc(F)c2)C1 [Example 410, 1-(4-chloro-3-(1,1-difluoro-2-hydroxyethyl)-1-phenyl-1H-pyrazol-5-yl)-3-((3S,4R)-4-(3,5-difluorophenyl)-1-(2-methoxyethyl)pyrrolidin-3-yl)urea]
< 100 nM | COCCN1C[C@@H](NC(=O)Nc2c(Cl)c(C(F)(F)CO)nn2-c2ccccc2)[C@H](c2ccc(F)cc2)C1 [Example 411, 1-(4-chloro-3-(1,1-difluoro-2-hydroxyethyl)-1-phenyl-1H-pyrazol-5-yl)-3-((3S,4R)-4-(4-fluorophenyl)-1-(2-methoxyethyl)pyrrolidin-3-yl)urea]
< 100 nM | COCCN1C[C@@H](NC(=O)Nc2c(Cl)c(C[C@H](C)O)nn2-c2ccccc2)[C@H](c2ccc(F)c(F)c2)C1 [Example 412, 1-(4-chloro-3-((S)-2-hydroxypropyl)-1-phenyl-1H-pyrazol-5-yl)-3-((3S,4R)-4-(3,4-difluorophenyl)-1-(2-methoxyethyl)pyrrolidin-3-yl)urea]
< 100 nM | COCCN1C[C@@H](NC(=O)Nc2c(Cl)c(C[C@@H](C)O)nn2-c2ccccc2)[C@H](c2ccc(F)c(F)c2)C1 [Example 413, 1-(4-chloro-3-((R)-2-hydroxypropyl)-1-phenyl-1H-pyrazo1-5-yl)-3-((3S,4R)-4-(3,4-difluorophenyl)-1-(2-methoxyethyl)pyrrolidin-3-yl)urea]
< 100 nM | COCCN1C[C@@H](NC(=O)Nc2c(Br)c(C[C@@H](C)O)nn2-c2ccccc2)[C@H](c2ccc(F)c(F)c2)C1 [Example 414, 1-(4-bromo-3-((R)-2-hydroxypropyl)-1-phenyl-1H-pyrazol-5-yl)-3-((3S,4R)-4-(3,4-difluorophenyl)-1-(2-methoxyethyl)pyrrolidin-3-yl)urea]
< 100 nM | COCCN1C[C@@H](NC(=O)Nc2c(Cl)c(CC(C)(C)O)nn2-c2ccccc2)[C@H](c2ccc(F)c(F)c2)C1 [Example 415, 1-(4-chloro-3-(2-hydroxy-2-methylpropyl)-1-phenyl-1H-pyrazol-5-yl)-3-((3S,4R)-4-(3,4-difluorophenyl)-1-(2-methoxyethyl)pyrrolidin-3-yl)urea]
< 100 nM | COCCN1C[C@@H](NC(=O)Nc2c(Cl)c(-c3nc(C)no3)nn2-c2ccccc2)[C@H](c2ccc(F)c(F)c2)C1 [Example 416, 1-(4-chloro-3-(3-methyl-1,2,4-oxadiazol-5-yl)-1-phenyl-1H-pyrazol-5-yl)-3-((3S,4R)-4-(3,4-difluorophenyl)-1-(2-methoxyethyl)pyrrolidin-3-yl)urea]
< 100 nM | COCCN1C[C@@H](NC(=O)Nc2c(Br)c(C(C)(C)C#N)nn2-c2ccccc2)[C@H](c2ccc(F)c(F)c2)C1 [Example 417, 1-(4-bromo-3-(2-cyanopropan-2-yl)-1-phenyl-1H-pyrazol-5-yl)-3-((3S,4R)-4-(3,4-difluorophenyl)-1-(2-methoxyethyl)pyrrolidin-3-yl)urea]
< 100 nM | COCCN1C[C@@H](NC(=O)Nc2c(Cl)c(C(C)(C)C#N)nn2-c2ccccc2)[C@H](c2ccc(F)c(F)c2)C1 [Example 418, 1-(4-chloro-3-(2-cyanopropan-2-yl)-1-phenyl-1H-pyrazol-5-yl)-3-((3S,4R)-4-(3,4-difluorophenyl)-1-(2-methoxyethyl)pyrrolidin-3-yl)urea]
< 100 nM | COCCN1C[C@@H](NC(=O)Nc2c(Br)c(-c3cnn(C)c3)nn2-c2ccccc2)[C@H](c2cc(F)cc(F)c2)C1 [Example 419, 1-(4-bromo-1′-methyl-1-phenyl-1H,1′H-[3,4′-bipyrazol]-5-yl)-3-((3S,4R)-4-(3,5-difluorophenyl)-1-(2-methoxyethyl)pyrrolidin-3-yl)urea]
< 100 nM | COCCN1C[C@@H](NC(=O)Nc2c(Br)c(-c3cnn(C)c3)nn2-c2ccccc2)[C@H](c2ccc(F)c(F)c2)C1 [Example 420, 1-(4-bromo-1′-methyl-1-phenyl-1H,1′H-[3,4′-bipyrazol]-5-yl)-3-((3S,4R)-4-(3,4-difluorophenyl)-1-(2-methoxyethyl)pyrrolidin-3-yl)urea]
< 100 nM | COCCN1C[C@@H](NC(=O)Nc2c(Br)c(-c3cnn(C)c3)nn2-c2ccccc2)[C@H](c2ccc(F)cc2)C1 [Example 421]
< 100 nM | COCCN1C[C@@H](NC(=O)Nc2c(Cl)c(-c3cnn(C)c3)nn2-c2ccccc2)[C@H](c2cc(F)cc(F)c2)C1 [Example 422, 1-(4-chloro-1′-methyl-1-phenyl-1H,1′H-[3,4′-bipyrazol]-5-yl)-3-((3S,4R)-4-(3,5-difluorophenyl)-1-(2-methoxyethyl)pyrrolidin-3-yl)urea]
< 100 nM | COCCN1C[C@@H](NC(=O)Nc2c(Cl)c(-c3cnn(C)c3)nn2-c2ccccc2)[C@H](c2ccc(F)c(F)c2)C1 [Example 423, 1-(4-chloro-1′-methyl-1-phenyl-1H,1′H-[3,4′-bipyrazol]-5-yl)-3-((3S,4R)-4-(3,4-difluorophenyl)-1-(2-methoxyethyl)pyrrolidin-3-yl)urea]
< 100 nM | COCCN1C[C@@H](NC(=O)Nc2c(Cl)c(-c3cnn(C)c3)nn2-c2ccccc2)[C@H](c2ccc(F)cc2)C1 [Example 424, 1-(4-chloro-1′-methyl-1-phenyl-1H,1′H-[3,4′-bipyrazol]-5-yl)-3-((3S,4R)-4-(4-fluorophenyl)-1-(2-methoxyethyl)pyrrolidin-3-yl)urea]
< 100 nM | COCCN1C[C@@H](NC(=O)Nc2c(Cl)c(-c3cnn(C)c3)nn2-c2ccccc2)[C@H](c2ccccc2)C1 [Example 425, 1-(4-chloro-1′-methyl-1-phenyl-1H,1′H-[3,4′-bipyrazol]-5-yl)-3-((3S,4R)-4-phenyl-1-(2-methoxyethyl)pyrrolidin-3-yl)urea]
< 100 nM | COCCN1C[C@@H](NC(=O)Nc2c(Cl)c(-c3ccccc3)nn2-c2ccccc2)[C@H](c2cc(F)cc(F)c2)C1 [Example 426, 1-(4-chloro-1,3-diphenyl-1H-pyrazol-5-yl)-3-((3S,4R)-4-(3,5-difluorophenyl)-1-(2-methoxyethyl)pyrrolidin-3-yl)urea]
< 100 nM | COCCN1C[C@@H](NC(=O)Nc2c(Br)c(-c3ccccc3)nn2-c2ccccc2)[C@H](c2cc(F)cc(F)c2)C1 [Example 427, 1-(4-bromo-1,3-diphenyl-1H-pyrazol-5-yl)-3-((3S,4R)-4-(3,5-difluorophenyl)-1-(2-methoxyethyl)pyrrolidin-3-yl)urea]
< 100 nM | COCCN1C[C@@H](NC(=O)Nc2c(Br)c(-c3ccccc3)nn2-c2ccccc2)[C@H](c2ccc(F)cc2)C1 [Example 428, 1-(4-bromo-1,3-diphenyl-1H-pyrazol-5-yl)-3-((3S,4R)-4-(4-fluorophenyl)-1-(2-methoxyethyl)pyrrolidin-3-yl)urea]
100 to 1000 nM | COCCN1C[C@@H](NC(=O)Nc2c(F)c(-c3cnn(C)c3)nn2-c2ccccc2)[C@H](c2cncc(F)c2)C1 [Example 432, 1-(4-fluoro-1′-methyl-1-phenyl-1H,1′H-[3,4′-bipyrazol]-5-yl)-3-((3S,4R)-4-(5-fluoropyridin-3-yl)-1-(2-methoxyethyl)pyrrolidin-3-yl)urea]
< 100 nM | COCCN1C[C@@H](NC(=O)Nc2c(Br)c(C)nn2-c2ccccc2)[C@H](c2cncc(F)c2)C1 [Example 433]
< 100 nM | COCCN1C[C@@H](NC(=O)Nc2c(Cl)c(C)nn2-c2ccccc2)[C@H](c2cncc(F)c2)C1 [Example 434]
< 100 nM | COCCN1C[C@@H](NC(=O)Nc2c(F)c(-c3cnn(C)c3)nn2-c2ccccc2)[C@H](c2ccc(F)c(F)c2)C1 [Example 438, 1-((3S,4R)-4-(3,4-difluorophenyl)-1-(2-methoxyethyl)pyrrolidin-3-yl)-3-(4-fluoro-1′-methyl-1-phenyl-1H,1′H-[3,4′-bipyrazol]-5-yl)urea]
< 100 nM | COCCN1C[C@@H](NC(=O)Nc2c(F)c(-c3cnn(C)c3)nn2-c2ccccc2)[C@H](c2cc(F)cc(F)c2)C1 [Example 439, 1-((3S,4R)-4-(3,5-difluorophenyl)-1-(2-methoxyethyl)pyrrolidin-3-yl)-3-(4-fluoro-1′-methyl-1-phenyl-1H,1′H-[3,4′-bipyrazol]-5-yl)urea]
< 100 nM | COCCN1C[C@@H](NC(=O)Nc2c(Br)c(-c3cnn(C)c3)nn2-c2ccccc2)[C@H](c2cncc(F)c2)C1 [Example 440, 1-(4-bromo-1′-methyl-1-phenyl-1H,1′H-[3,4′-bipyrazol]-5-yl)-3-((3S,4R)-4-(5-fluoropyridin-3-yl)-1-(2-methoxyethyl)pyrrolidin-3-yl)urea]
